{"source": "paper PMC2225630", "about": "(The Journal of General Physiology, 1966)", "key": {"[1]": {"system": "Na+-insensitive uptake, Ehrlich cell", "assay": "Uptake of amino acids by Ehrlich cells from Na+-free medium", "type": "cell-based, mice", "conditions": "for uptake (Table II): amino acid 1 mM, [Na+] 0; for inhibitory action on the uptake of methionine: choline has replaced Na+ (Table I); for Uptake of methionine in presence of inhibitor (Table I): labeled methionine 1 mM; for Uptake of methionine in presence of inhibitor (Table I) / Uptake of AIB in presence of inhibitor (Table I) / Uptake of labeled amino acid without inhibitor (Table I): no Na+; for Km: read-out: Km for the other amino acid (Table V), choline medium, 37 C, pH 7.4, 1 min, only approximate; for Km / Ratio of uptake Methionine/other amino acid (Table VI): absence of Na+; for Rate of methionine uptake (Table IV): 1 mM, Na+-free Krebs-Ringer phosphate medium; for Uptake of AIB in presence of inhibitor (Table I): labeled AIB 1 mM; for Uptake of labeled amino acid without inhibitor (Table I): labeled amino acid 1 mM, inhibitor 0"}, "[2]": {"system": "Na+-sensitive transport system (system A) of the Ehrlich cell", "assay": "Na+-sensitive uptake of amino acids", "type": "cell-based, mice"}, "Ehrlich cell [3]": {"system": "Ehrlich cell", "conditions": "first minute, high amino acid levels; cited from earlier work"}, "Ehrlich cell [4]": {"system": "Ehrlich cell", "type": "cell-based, mice", "conditions": "above 16 mM methionine, modified KRB medium with Na+, 1 min, 37 C, pH 7.4"}, "[5]": {"conditions": "choline chloride substituting for NaCl, Exp. 1"}, "[6]": {"conditions": "choline chloride substituting for NaCl, Exp. 2"}, "[7]": {"conditions": "sucrose substituting for NaCl, Exp. 1"}, "[8]": {"conditions": "sucrose substituting for NaCl, Exp. 2"}, "[9]": {"conditions": "[Na+] 107 mEq/liter, 1 min, 37 C, pH 7.4"}, "[10]": {"conditions": "methionine 0.25 mM + AIB 1.0 mM, 1 min, 37 C, pH 7.4"}, "[11]": {"conditions": "methionine 0.5 mM + AIB 2.0 mM, 1 min, 37 C, pH 7.4"}, "[12]": {"conditions": "methionine 1.0 mM + AIB 4.0 mM, 1 min, 37 C, pH 7.4"}, "[13]": {"conditions": "read-out: Km of Na+-sensitive uptake, [Na+] 107 mEq/liter, 1 min, 37 C, pH 7.4"}}, "note": "Values joined by “and” are separate entries in the source; they are usually repeats but may differ in a detail not shown here. Equal entries are not always repeated. Where two headings read alike, the source gives them in different places."}
{"compound": "CC(C)(N)C(=O)O", "note": "[AIB, a-aminoisobutyric acid, reference compound]", "values": [{"measurement": "uptake (Table II)", "setting": "[1]; [5]", "result": 0.16, "unit": "mmoles/kg cell water min"}, {"measurement": "uptake (Table II)", "setting": "[1]; [6]", "result": 0.21, "unit": "mmoles/kg cell water min"}, {"measurement": "uptake (Table II)", "setting": "[1]; [7]", "result": 0.21, "unit": "mmoles/kg cell water min"}, {"measurement": "uptake (Table II)", "setting": "[1]; [8]", "result": 0.29, "unit": "mmoles/kg cell water min"}, {"measurement": "inhibitory action on the uptake of methionine", "setting": "[1]", "result": "no significant inhibitory action"}, {"measurement": "Uptake of methionine in presence of inhibitor (Table I)", "setting": "[1]; inhibitor 4 mM", "result": 2.63, "unit": "mmoles/kg cell water-min"}, {"measurement": "Uptake of methionine in presence of inhibitor (Table I)", "setting": "[1]; inhibitor 8 mM", "result": 2.62, "unit": "mmoles/kg cell water-min"}, {"measurement": "Vmax of Na+-sensitive uptake", "setting": "[2]; [9]", "result": 5, "unit": "mmoles/kg cell water min"}, {"measurement": "Vmax, velocities extrapolated to infinite [Na+]", "setting": "[2]", "result": 7.1, "unit": "mM/kg cell water min"}, {"measurement": "Sodium-sensitive uptake rate of the test amino acid in mixture (Table III)", "setting": "[2]; [10]", "result": 0.51, "unit": "mmoles/kg cell water min"}, {"measurement": "Sodium-sensitive uptake rate of the test amino acid in mixture (Table III)", "setting": "[2]; [11]", "result": 0.64, "unit": "mmoles/kg cell water min"}, {"measurement": "Sodium-sensitive uptake rate of the test amino acid in mixture (Table III)", "setting": "[2]; [12]", "result": 0.77, "unit": "mmoles/kg cell water min"}, {"measurement": "Km", "setting": "[2]; [13]", "result": 2000, "unit": "µM"}, {"measurement": "rate of permeation at high levels (\"nonsaturable\" migration)", "setting": "Ehrlich cell [3]", "result": 0.1, "unit": "min-'"}]}
{"compound": "CNC(C)(C)C(=O)O", "note": "[MeAIB, α-(methylamino)-isobutyric acid, reference compound]", "values": [{"measurement": "inhibitory action on the uptake of methionine", "setting": "[1]", "result": "no significant action"}, {"measurement": "Uptake of methionine in presence of inhibitor (Table I)", "setting": "[1]; inhibitor 16 mM", "result": 1.77, "unit": "mmoles/kg cell water-min"}, {"measurement": "Km", "setting": "[2]; [13]", "result": "~300", "unit": "µM"}]}
{"compound": "C[C@H](N)C(=O)O", "note": "[alanine]", "values": [{"measurement": "Vmax of Na+-sensitive uptake", "setting": "[2]; difference method of Fig. 5", "result": "6.4 mmoles per kg cell water min"}]}
{"compound": "NCC(=O)O", "note": "[glycine]", "values": [{"measurement": "Vmax of Na+-sensitive uptake", "setting": "[2]; difference method of Fig. 5", "result": "7.4 mmoles per kg cell water min"}]}
{"compound": "CC(C)C[C@H](N)C(=O)O", "note": "[leucine]", "values": [{"measurement": "Km", "setting": "[1]", "result": 150, "unit": "µM"}]}
{"compound": "CSCC[C@H](N)C(=O)O", "note": "[methionine, L-methionine]", "values": [{"measurement": "Rate of methionine uptake (Table IV)", "setting": "[1]; pH 5.6, Exp. 1", "result": 3.03, "unit": "mmoles/kg cell water min"}, {"measurement": "Rate of methionine uptake (Table IV)", "setting": "[1]; pH 5.6, Exp. 2", "result": 2.99, "unit": "mmoles/kg cell water min"}, {"measurement": "Rate of methionine uptake (Table IV)", "setting": "[1]; pH 6.3, Exp. 1", "result": 3.03, "unit": "mmoles/kg cell water min"}, {"measurement": "Rate of methionine uptake (Table IV)", "setting": "[1]; pH 6.3, Exp. 2", "result": 3.08, "unit": "mmoles/kg cell water min"}, {"measurement": "Rate of methionine uptake (Table IV)", "setting": "[1]; pH 7.0, Exp. 1", "result": 2.86, "unit": "mmoles/kg cell water min"}, {"measurement": "Rate of methionine uptake (Table IV)", "setting": "[1]; pH 7.0, Exp. 2", "result": 2.87, "unit": "mmoles/kg cell water min"}, {"measurement": "inhibitory action on the residual uptake of AIB", "setting": "[1]; Na+ replaced with choline+ (Table I)", "result": "negligible inhibitory action"}, {"measurement": "distribution ratio (cellular level to extracellular level)", "setting": "[1]; after 1 min, all Na+ eliminated from the medium", "result": 2.25}, {"measurement": "uptake (Table II)", "setting": "[1]; [5]", "result": 1.35, "unit": "mmoles/kg cell water min"}, {"measurement": "uptake (Table II)", "setting": "[1]; [6]", "result": 2.48, "unit": "mmoles/kg cell water min"}, {"measurement": "uptake (Table II)", "setting": "[1]; [7]", "result": 1.44, "unit": "mmoles/kg cell water min"}, {"measurement": "uptake (Table II)", "setting": "[1]; [8]", "result": 2.79, "unit": "mmoles/kg cell water min"}, {"measurement": "Uptake of AIB in presence of inhibitor (Table I)", "setting": "[1]; inhibitor 0.5 mM", "result": 0.17, "unit": "mmoles/kg cell water-min"}, {"measurement": "Uptake of AIB in presence of inhibitor (Table I)", "setting": "[1]; inhibitor 1 mM", "result": 0.14, "unit": "mmoles/kg cell water-min"}, {"measurement": "Uptake of labeled amino acid without inhibitor (Table I)", "setting": "[1]; experiment with AIB as inhibitor", "result": 2.68, "unit": "mmoles/kg cell water-min"}, {"measurement": "Uptake of labeled amino acid without inhibitor (Table I)", "setting": "[1]; experiment with MeAIB as inhibitor", "result": 1.77, "unit": "mmoles/kg cell water-min"}, {"measurement": "Ratio of uptake Methionine/other amino acid (Table VI)", "setting": "[1]; methionine and leucine, each 0.2 mM", "result": 0.99}, {"measurement": "Ratio of uptake Methionine/other amino acid (Table VI)", "setting": "[1]; methionine and leucine, each 0.4 mM", "result": 0.94}, {"measurement": "Ratio of uptake Methionine/other amino acid (Table VI)", "setting": "[1]; methionine and leucine, each 0.8 mM", "result": 0.92}, {"measurement": "Ratio of uptake Methionine/other amino acid (Table VI)", "setting": "[1]; methionine and leucine, each 1.6 mM", "result": 0.99}, {"measurement": "Ratio of uptake Methionine/other amino acid (Table VI)", "setting": "[1]; methionine and valine, each 0.25 mM", "result": 3.2}, {"measurement": "Ratio of uptake Methionine/other amino acid (Table VI)", "setting": "[1]; methionine and valine, each 0.5 mM", "result": 2.18}, {"measurement": "Ratio of uptake Methionine/other amino acid (Table VI)", "setting": "[1]; methionine and valine, each 1.0 mM", "result": 1.65}, {"measurement": "Ratio of uptake Methionine/other amino acid (Table VI)", "setting": "[1]; methionine and valine, each 2.0 mM", "result": 1.33}, {"measurement": "linear slope of increase of uptake rate with methionine concentration", "setting": "Ehrlich cell [4]", "result": 0.09, "unit": "min- l"}, {"measurement": "inhibition of the saturable uptake of AIB", "setting": "[2]; Na+ at 107 mEq/liter, Fig. 10", "result": "so nearly complete"}, {"measurement": "Vmax of Na+-sensitive uptake", "setting": "[2]; [9]", "result": "4 mmoles/kg cell water min and 3.7 mmoles/kg cell water min"}, {"measurement": "Vmax, velocities extrapolated to infinite [Na+]", "setting": "[2]", "result": 5.0, "unit": "mM/kg cell water min"}, {"measurement": "inhibition of the uptake of MeAIB", "setting": "[2]; in the presence of Na+", "result": "inhibits almost completely"}, {"measurement": "Ratio of uptake rates methionine/AIB (Table III)", "setting": "[2]; methionine 0.25 mM + AIB 1.0 mM", "result": 1.1}, {"measurement": "Sodium-sensitive uptake rate of the test amino acid in mixture (Table III)", "setting": "[2]; [10]", "result": 0.58, "unit": "mmoles/kg cell water min"}, {"measurement": "Ratio of uptake rates methionine/AIB (Table III)", "setting": "[2]; methionine 0.5 mM + AIB 2.0 mM", "result": 1.5}, {"measurement": "Sodium-sensitive uptake rate of the test amino acid in mixture (Table III)", "setting": "[2]; [11]", "result": 0.99, "unit": "mmoles/kg cell water min"}, {"measurement": "Ratio of uptake rates methionine/AIB (Table III)", "setting": "[2]; methionine 1.0 mM + AIB 4.0 mM", "result": 1.4}, {"measurement": "Sodium-sensitive uptake rate of the test amino acid in mixture (Table III)", "setting": "[2]; [12]", "result": 1.04, "unit": "mmoles/kg cell water min"}, {"measurement": "Km", "setting": "[2]; [13]", "result": 300, "unit": "µM"}, {"measurement": "Km", "setting": "[2]; read-out: Km, velocities extrapolated to infinite [Na+], data of Fig. 12 left", "result": 140, "unit": "µM"}]}
{"compound": "CC(C)[C@H](N)C(=O)O", "note": "[valine]", "values": [{"measurement": "Km", "setting": "[1]", "result": 750, "unit": "µM"}]}
